The record followed here is patent US20240150293A1, “SPIROCYCLOHEXANE DERIVATIVES, PHARMACEUTICAL COMPOSITIONS CONTAINING THEM AND THEIR USES AS ANTI-APOPTOTIC INHIBITORS” (LES LABORATOIRES SERVIER, priority 2021, published 2024).

pIC50, pKi: −log10 of the molar value. Like-named read-outs stand apart in the source and are kept apart here.

Test [1] deals with H929 multiple myeloma tumor line. Description: In vitro cytotoxicity, MTT assay (Example B, Method A). The settings on record: H929 cells, 48 hours exposure, read-out: C50. In kind it is cell-based. Here is the method: The cytotoxicity studies were carried out on the H929 multiple myeloma tumor line.
The cells are distributed onto microplates and exposed to the test compounds for 48 hours. The cell viability is then quantified by a colorimetric assay, the Microculture Tetrazolium Assay (Carmichael et al, Cancer Res. 1987, 47, 939-942).
The results are expressed in C50 which means concentration corresponding to […] of effect/inhibition.

Test [2] concerns the target Cy5-labelled Mcl1 (amino acids 171-321) C286S protein (UniProtKB Q07820) (Homo sapiens (Human), UniProt Q07820, C286S). Description: Inhibition of Mcl-1 by the fluorescence quenching assay (Example A, Method B). The test is classed as binding. The method in brief: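 Cy5-labelled Mcl1 171-321 C286S (1 nM) quenched by TQ5WS-labelled PUMA peptide (10, 20 or 400 nM); displacement raises fluorescence (Ex 620/Em 680 nm). Buffer 10 mM HEPES, 150 mM NaCl, 0.05% Tween 20, pH 7.4, 5% DMSO; 2 h at room temperature, 11-point curves, IC50 converted to Ki (cKi/eKi).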

Sequence of Cy5-labelled Mcl1 (amino acids 171-321) C286S protein (Q07820 171-321 C286S): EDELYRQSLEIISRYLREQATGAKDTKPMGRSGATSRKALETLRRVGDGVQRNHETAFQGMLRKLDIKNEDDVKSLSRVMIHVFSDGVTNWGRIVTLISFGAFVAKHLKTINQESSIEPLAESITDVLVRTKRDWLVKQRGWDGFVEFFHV

On to `C[C@@H](COc1ccnc2c1CCCC2)C[C@H]1Cc2ccccc2[C@]12CC[C@@](Nc1cccc(Cl)c1)(C(=O)O)CC2` [Example 645, (1r,4R)-4-(3-chloroanilino)-2′-{(2R)-2-methyl-3-[(5,6,7,8-tetrahydroquinolin-4-yl)oxy]propyl}-2′,3′-dihydrospiro[cyclohexane-1,1′-indene]-4-carboxylic acid], for which the pIC50 in test [1] (Homo sapiens, NCI-H929, 48 h) is 6.21. For the same molecule, in test [2], the pKi (as a rule, the negative decadic logarithm of the Ki, by convention in mol/L) is 8.39.
For `C[C@@H](COc1ccnc2c1[C@H](C)CCC2)CC1=Cc2ccccc2[C@]12CC[C@@](Nc1cccc(Cl)c1)(C(=O)O)CC2` [Example 646, (1r,4R)-4-(3-chloroanilino)-2′-[(2R)-2-methyl-3-{[(5R)-5-methyl-5,6,7,8-tetrahydroquinolin-4-yl]oxy}propyl]spiro[cyclohexane-1,1′-indene]-4-carboxylic acid], the pIC50 in test [1] (Homo sapiens, NCI-H929, 48 h) was 6.83. Further, the pKi in test [2] was 9.23.
As for `C[C@@H](COc1ccnc2c1[C@@H](C)CCC2)CC1=Cc2ccccc2[C@]12CC[C@@](Nc1cccc(Cl)c1)(C(=O)O)CC2` [Example 647, (1r,4R)-4-(3-chloroanilino)-2′-[(2R)-2-methyl-3-{[(5S)-5-methyl-5,6,7,8-tetrahydroquinolin-4-yl]oxy}propyl]spiro[cyclohexane-1,1′-indene]-4-carboxylic acid], in test [1] (Homo sapiens, NCI-H929, 48 h), the pIC50 was 6.06. The pKi in test [2] was 8.03.
The corresponding values for `C[C@@H](COc1ccnc2c1C1CCC2CC1)C[C@H]1Cc2ccccc2[C@]12CC[C@@](Nc1cccc(Cl)c1)(C(=O)O)CC2` [Example 648, (1r,2′S,4S)-4-(3-chloroanilino)-2′-{(2R)-2-methyl-3-[(5,6,7,8-tetrahydro-5,8-ethanoquinolin-4-yl)oxy]propyl}-2′,3′-dihydrospiro[cyclohexane-1,1′-indene]-4-carboxylic acid] are 6.10 and 7.74.
For `CC1CCc2c(OC[C@H](C)C[C@H]3Cc4ccccc4[C@]34CC[C@@](Nc3cccc(Cl)c3)(C(=O)O)CC4)ccnc2C1` (stereo partly drawn) [Example 650, (1r,2′S,4S)-4-(3-chloroanilino)-2′-{(2R)-2-methyl-3-[(7-methyl-5,6,7,8-tetrahydroquinolin-4-yl)oxy]propyl}-2′,3′-dihydrospiro[cyclohexane-1,1′-indene]-4-carboxylic acid], in that order: 6.04 and 8.26.
For `C[C@@H](COc1ccnc2c1[C@@H](C)CCC2)C[C@H]1Cc2ccccc2[C@]12CC[C@@](Nc1cccc(Cl)c1)(C(=O)O)CC2` [Example 654, (1r,2′S,4S)-4-(3-chloroanilino)-2′-[(2R)-2-methyl-3-{[(5S)-5-methyl-5,6,7,8-tetrahydroquinolin-4-yl]oxy}propyl]-2′,3′-dihydrospiro[cyclohexane-1,1′-indene]-4-carboxylic acid], in that order: 6.12 and 8.28.
Take `CC1CCCc2nccc(NC[C@H](C)C[C@H]3Cc4ccccc4[C@]34CC[C@@](Nc3cccc(Cl)c3)(C(=O)O)CC4)c21` (stereo partly drawn) [Example 655, (1r,2′S,4S)-4-(3-chloroanilino)-2′-{(2R)-2-methyl-3-[(5-methyl-5,6,7,8-tetrahydroquinolin-4-yl)amino]propyl}-2′,3′-dihydrospiro[cyclohexane-1,1′-indene]-4-carboxylic acid]: in test [1] (Homo sapiens, NCI-H929, 48 h), the pIC50 is 5.07. Also, the pKi in test [2] was 7.29.
The corresponding values for `CC[C@H]1CCCc2nccc(OC[C@H](C)C[C@H]3Cc4ccccc4[C@]34CC[C@@](Nc3cccc(Cl)c3)(C(=O)O)CC4)c21` [Example 656, (1r,2′S,4S)-4-(3-chloroanilino)-2′-[(2R)-3-{[(5S)-5-ethyl-5,6,7,8-tetrahydroquinolin-4-yl]oxy}-2-methylpropyl]-2′,3′-dihydrospiro[cyclohexane-1,1′-indene]-4-carboxylic acid] are 5.54 and 7.20.
The corresponding values for `CC[C@@H]1CCCc2nccc(OC[C@H](C)C[C@H]3Cc4ccccc4[C@]34CC[C@@](Nc3cccc(Cl)c3)(C(=O)O)CC4)c21` [Example 657, (1r,2′S,4S)-4-(3-chloroanilino)-2′-[(2R)-3-{[(5R)-5-ethyl-5,6,7,8-tetrahydroquinolin-4-yl]oxy}-2-methylpropyl]-2′,3′-dihydrospiro[cyclohexane-1,1′-indene]-4-carboxylic acid] are 6.86 and 8.53.
For `C[C@@H](COc1ccnc2c1[C@H](C)CC[C@H]2C)C[C@H]1Cc2ccccc2[C@]12CC[C@@](Nc1cccc(Cl)c1)(C(=O)O)CC2` [Example 660, (1r,2′S,4S)-4-(3-chloroanilino)-2′-[(2R)-3-{[(5R,8R)-5,8-dimethyl-5,6,7,8-tetrahydroquinolin-4-yl]oxy}-2-methylpropyl]-2′,3′-dihydrospiro[cyclohexane-1,1′-indene]-4-carboxylic acid], in that order: 7.21 and 8.86.
Consider `C[C@@H](COc1ccnc2c1[C@@H](C)CC[C@@H]2C)C[C@H]1Cc2ccccc2[C@]12CC[C@@](Nc1cccc(Cl)c1)(C(=O)O)CC2` [Example 661, (1r,2′S,4S)-4-(3-chloroanilino)-2′-[(2R)-3-{[(5S,8S)-5,8-dimethyl-5,6,7,8-tetrahydroquinolin-4-yl]oxy}-2-methylpropyl]-2′,3′-dihydrospiro[cyclohexane-1,1′-indene]-4-carboxylic acid], for which, in test [1] (Homo sapiens, NCI-H929, 48 h), the pIC50 was 5.30. Further, the negative logarithm of the Ki (pKi) in test [2] is 7.09.
The corresponding values for `C[C@H]1Cc2nccc(OC[C@H](C)C[C@H]3Cc4ccccc4[C@]34CC[C@@](Nc3cccc(Cl)c3)(C(=O)O)CC4)c2[C@@H](C)C1` [Example 664, (1r,2′S,4S)-4-(3-chloroanilino)-2′-[(2R)-3-{[(5S,7R)-5,7-dimethyl-5,6,7,8-tetrahydroquinolin-4-yl]oxy}-2-methylpropyl]-2′,3′-dihydrospiro[cyclohexane-1,1′-indene]-4-carboxylic acid] are 5.52 and 7.28.
For `C[C@@H]1Cc2nccc(OC[C@H](C)C[C@H]3Cc4ccccc4[C@]34CC[C@@](Nc3cccc(Cl)c3)(C(=O)O)CC4)c2[C@H](C)C1` [Example 665, (1r,2′S,4S)-4-(3-chloroanilino)-2′-[(2R)-3-{[(5R,7S)-5,7-dimethyl-5,6,7,8-tetrahydroquinolin-4-yl]oxy}-2-methylpropyl]-2′,3′-dihydrospiro[cyclohexane-1,1′-indene]-4-carboxylic acid], in that order: 6.56 and 8.52.
Turning to `C[C@@H]1Cc2nccc(OC[C@H](C)C[C@H]3Cc4ccccc4[C@]34CC[C@@](Nc3cccc(Cl)c3)(C(=O)O)CC4)c2[C@@H](C)C1` [Example 666, (1r,2′S,4S)-4-(3-chloroanilino)-2′-[(2R)-3-{[(5S,7S)-5,7-dimethyl-5,6,7,8-tetrahydroquinolin-4-yl]oxy}-2-methylpropyl]-2′,3′-dihydrospiro[cyclohexane-1,1′-indene]-4-carboxylic acid], the pIC50 in test [1] (Homo sapiens, NCI-H929, 48 h) was 5.97. The pKi in test [2] was 7.54.
The corresponding values for `C[C@H]1Cc2nccc(OC[C@H](C)C[C@H]3Cc4ccccc4[C@]34CC[C@@](Nc3cccc(Cl)c3)(C(=O)O)CC4)c2[C@H](C)C1` [Example 667, (1r,2′S,4S)-4-(3-chloroanilino)-2′-[(2R)-3-{[(5R,7R)-5,7-dimethyl-5,6,7,8-tetrahydroquinolin-4-yl]oxy}-2-methylpropyl]-2′,3′-dihydrospiro[cyclohexane-1,1′-indene]-4-carboxylic acid] are 6.24 and 8.39.
The corresponding values for `C[C@@H](COc1ccnc2c1CCC[C@H]2O)C[C@H]1Cc2ccccc2[C@]12CC[C@@](Nc1cccc(Cl)c1)(C(=O)O)CC2` [Example 668, (1r,2′S,4S)-4-(3-chloroanilino)-2′-[(2R)-3-{[(8R)-8-hydroxy-5,6,7,8-tetrahydroquinolin-4-yl]oxy}-2-methylpropyl]-2′,3′-dihydrospiro[cyclohexane-1,1′-indene]-4-carboxylic acid] are 6.45 and 8.56.
For `CO[C@H]1CCCc2nccc(OC[C@H](C)C[C@H]3Cc4ccccc4[C@]34CC[C@@](Nc3cccc(Cl)c3)(C(=O)O)CC4)c21` [Example 671, (1r,2′S,4S)-4-(3-chloroanilino)-2′-[(2R)-3-{[(5S)-5-methoxy-5,6,7,8-tetrahydroquinolin-4-yl]oxy}-2-methylpropyl]-2′,3′-dihydrospiro[cyclohexane-1,1′-indene]-4-carboxylic acid], in that order: 5.59 and 7.41.
On to `CO[C@@H]1CCCc2nccc(OC[C@H](C)C[C@H]3Cc4ccccc4[C@]34CC[C@@](Nc3cccc(Cl)c3)(C(=O)O)CC4)c21` [Example 672, (1r,2′S,4S)-4-(3-chloroanilino)-2′-[(2R)-3-{[(5R)-5-methoxy-5,6,7,8-tetrahydroquinolin-4-yl]oxy}-2-methylpropyl]-2′,3′-dihydrospiro[cyclohexane-1,1′-indene]-4-carboxylic acid], for which the pIC50 in test [1] (Homo sapiens, NCI-H929, 48 h) was 6.41. The pKi in test [2] is 8.61.
As to `C[C@@H](COc1ccnc2c1[C@H](C)CC[C@H]2O)C[C@H]1Cc2ccccc2[C@]12CC[C@@](Nc1cccc(Cl)c1)(C(=O)O)CC2` [Example 673, (1r,2′S,4S)-4-(3-chloroanilino)-2′-[(2R)-3-{[(5R,8S)-8-hydroxy-5-methyl-5,6,7,8-tetrahydroquinolin-4-yl]oxy}-2-methylpropyl]-2′,3′-dihydrospiro[cyclohexane-1,1′-indene]-4-carboxylic acid], in test [1], the pIC50 is 6.68. Also, the pKi in test [2] is 9.19.
